# Data from publication PMC8231572, “New Heparanase-Inhibiting Triazolo-Thiadiazoles Attenuate Primary Tumor Growth and Metastasis” (Cancers, 2021).
# “Also recorded” adds a separate entry of the source.
# Experiments:
# heparanase [1] = target: T1, heparanase (Homo sapiens, UniProt Q9Y251); assay: Colorimetric heparanase assay (fondaparinux/Arixtra cleavage, WST-1); type: biochemical; details: fondaparinux substrate, heparanase 140 pM, pH 5.0, 37 °C, 18 h; for IC50: read-out: IC50, inhibition of heparanase enzymatic activity (converted)
# T1 sequence (Q9Y251 158-543 limits assumed): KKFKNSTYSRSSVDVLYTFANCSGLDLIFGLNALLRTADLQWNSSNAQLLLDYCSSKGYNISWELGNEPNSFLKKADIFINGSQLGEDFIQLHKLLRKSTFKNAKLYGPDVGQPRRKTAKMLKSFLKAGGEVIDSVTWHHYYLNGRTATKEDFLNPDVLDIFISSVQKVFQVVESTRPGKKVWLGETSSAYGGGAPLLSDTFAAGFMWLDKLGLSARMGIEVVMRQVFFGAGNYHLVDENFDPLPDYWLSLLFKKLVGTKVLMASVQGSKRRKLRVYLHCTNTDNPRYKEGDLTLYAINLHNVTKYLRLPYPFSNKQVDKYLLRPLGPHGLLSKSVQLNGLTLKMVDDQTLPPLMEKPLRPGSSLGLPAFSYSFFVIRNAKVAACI
# T1 sequence (Q9Y251 36-109 limits assumed): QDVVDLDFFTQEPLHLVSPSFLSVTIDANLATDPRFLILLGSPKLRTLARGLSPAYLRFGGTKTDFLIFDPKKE
# Description: The assay was carried out in a 96-well plate in which the formation of the disaccharide product upon cleavage of fondaparinux (Arixtra, GlaxoSmithKline, Brentford, UK) was estimated using WST-1 tetrazolium salt as described earlier. In brief, the reaction system (100 μL) comprised sodium acetate buffer (pH 5.0, 40 mM) and fondaparinux ([…]) with or without different doses of chemicals under investigation. The assay was initiated by the addition of recombinant heparanase to make the final concentration of 140 pM. The reaction vessels were placed at 37 °C for 18 h, followed by the addition of stop solution (100 μL). WST-1 prepared in 0.1 M NaOH served as a stop solution. Thereafter, the plates were incubated at 60 °C for 60 min, and absorbance was measured at 584 nm. N-(4-([4-(1H-Benzoimidazol-2-yl)-arylamino]-methyl)-phenyl)-benzamide (compound #98) was used as a reference compound. The title compounds were examined for their inhibitory efficacy towards heparanase at 10 and 50 μg/mL. Compounds that yielded inhibition at these concentrations were further tested at lower concentrations to determine their IC50.
# The newly synthesized compounds presented in Table 1 were examined for their ability to inhibit the enzymatic activity of recombinant heparanase. For the initial screening of compounds, we applied a colorimetric assay based on the cleavage of the synthetic heparin pentasaccharide fondaparinux (Arixtra). The assay measures the appearance of a disaccharide product of heparanase-catalyzed fondaparinux cleavage, using the tetrazolium salt WST-1 [23]. All compounds were first tested for inhibition of heparanase at 10 and 50 μg/mL (not shown). Compounds that yielded inhibition at these high concentrations were further examined at lower concentrations to determine their IC50 (Figure 2).
# U87 human glioma cells = assay: Cell invasion through Matrigel-coated transwell filters (Boyden chambers); type: cell-based; details: 10 µg/mL, 6 h, 37 °C, Matrigel-coated 8 μm transwell filters
# Description: Invasion assay was performed using Boyden chambers as reported previously. Briefly, U87 cells (5 × 10^5) were seeded into the upper chamber of the invasion chamber in a medium devoid of serum, and the lower chamber contained media supplemented with serum. The cell invasion on treatment with title compounds (4-MMI, 4-CMI; […]) was analyzed by staining with 0.5% crystal violet (Sigma-Aldrich) and photographed.
# (§1) Figure 3 Inhibition of ECM degradation and cell invasion. (A) ECM degradation. Active heparanase (200 ng) was incubated for 5 h without (red) or with 5 and 25 µg/mL of 4-CMI, 4-MDI, or 4-MMI on dishes coated with sulfate-labeled ECM. Labeled material released from the ECM was subjected to gel filtration (Sepharose 6B). Heparan sulfate degradation fragments are typically eluted in fractions 18–30. (B) Cell invasion. U87 human glioma cells (2 × 10^5) were plated onto Matrigel-coated 8 μm transwell filters and incubated (6 h, 37 °C) in the absence (Con) or presence of 4-MMI or 4-CMI (10 µg/mL). (C) Dose–response showing the effect of compound 4-MMI (2.5, 10, and 40 µg/mL) on U87 cell invasion. Invading cells adhering to the lower side of the membrane were visualized (top panels) and quantified (bottom panel) in 7 random fields as described in ‘Materials and Methods’.
# heparanase [2] = target: T1, heparanase; assay: ECM degradation heparanase assay (sulfate-labeled ECM, Sepharose 6B gel filtration); type: biochemical; details: heparanase 200 ng, 5 h; for inhibition of heparanase activity (ECM degradation): 5 µg/mL compound; for inhibition at 25 µg/mL: 25 µg/mL compound
# Description: ECM degradation heparanase assay was carried out as reported earlier. Briefly, ECM labeled with sulfate [^35S] [25] and coating the surface of 35-mm cultures plates was treated with heparanase (200 ng/mL) with or without compounds under investigation. The medium was collected to examine the cleavage of HS proteoglycans and subjected to molecular sieving on Sepharose 6B columns. The radioactivity was measured in the eluted fractions (0.2 mL). Blue dextran and phenol red were used to mark the excluded volume (Vo) and included volume (Vt), respectively. The cleaved HS chains were eluted at 0.5 < Kav < 0.8 (fractions 16–32), and the nearly intact proteoglycan was eluted with the void volume.
# To validate the results and better resemble the in vivo situation, we applied metabolically sulfate [Na2^35SO4] labeled extracellular matrix (ECM) deposited by cultured endothelial cells. This naturally produced substrate closely resembles the subendothelial basement membrane in its composition, biological function, and barrier properties. […] This semi-quantitative assay measures release of radioactive heparan sulfate (HS) degradation fragments from an insoluble extracellular matrix (ECM) that is firmly bound to a culture dish.
# as §1
# [3] = system: 4T1 mouse breast carcinoma cells; assay: 4T1 breast carcinoma experimental metastasis, IVIS bioluminescence imaging; type: in vivo, BALB/c mice; details: IVIS day 13
# Description: 4TI mouse breast cancer cells tagged with luciferase (1.5 × 10^5/0.1 mL/BALB/c mouse) were inoculated intravenously. Test compounds (i.p., 500 μg/mouse) or DMSO (0.1 mL/mouse) were administered 20 min before cell injection. The mice were analyzed using IVIS bioluminescent on day 7 and day 13 post-inoculation. These cells metastasize primarily to the lungs.
# The bioluminescence imaging of tumors generated from luciferase-expressing cancer cells was carried out using a highly sensitive, cooled charge-coupled device camera assembled in a specimen box (IVIS; Xenogen Corp, Hopkinton, MA, USA). The imaging has advantages such as real-time capture, non-invasive, and quantitative values. For this, the tumor-bearing mice were intraperitoneally administered with a luciferase substrate D-luciferin at a dose of 150 mg/kg body weight. The experimental animal was anesthetized and kept in a camera box followed by continuous exposure to isoflurane (EZAnesthesia, Palmer, PA, USA). The bioluminescence from the tumor mass was detected by the IVIS system, and, subsequently, the tumor burden was quantified using Living Image software (Xenogen).
# Figure 4 Inhibition of 4T1 breast carcinoma experimental metastasis. […] Quantification of the luciferase intensities is shown graphically in the lower panel, as described in ‘Section 2. […]
# VEGF = assay: Immunostaining of MPC-11 tumor sections with anti-VEGF antibodies; type: in vivo, BALB/c mice; details: tumors of mice treated daily with 200 μg/mouse i.p.
# Description: Next, we examined the capacity of compound 4-MMI to inhibit myeloma primary tumor growth. For this purpose, we applied the MPC-11 syngeneic myeloma model. Briefly, BALB/c mice were implanted subcutaneously with MPC-11 mouse myeloma cells (0.5 × 10^6/mouse) and treated with either DMSO (0.1 mL/mouse) or 4-MMI (daily 200 μg/mouse, i.p.), starting on day two after tumor cell inoculation. Xenograft Tumor size was measured on days 8 and 12 (Figure 5A), resected, and weighed (Figure 5B) (see also Figure S2).
# Figure S2. MPC-11 tumor growth. MPC-11 cells were inoculated subcutaneously at the right flank of 6-weeks old female Balb/C mice (n=6). Mice were treated with either DMSO (0.1 ml/mouse) or 4-MMI (daily 200 μg/mouse, i.p.) starting on day 2 after the injection of tumor cells, for 12 days. Tumor size was determined on days 8 and 12 (left panel). At the end of the experiment, mice were sacrificed and the tumors were resected and weighed (right panel). For more detail see figure 5.
# Figure S3. Immunostaining. Tumors produced by untreated (control) a nd 4-MMI treated Balb/c mice were removed (day 13), fixed and embedded in paraffin. Five micron sections were subjected to immunostaining applying anti-VEGF antibodies. Shown are representative images (original magnification x100). […]
# [4] = system: MPC-11 mouse myeloma cells; assay: MPC-11 syngeneic myeloma tumor growth; type: in vivo
# Description: The mouse myeloma (MPC-11) cells were gently washed with PBS and the cell number was adjusted to 5 × 10^6 cells/mL. Thereafter, six-week-old female BALB/c mice (n = 6) were subcutaneously injected with washed MPC-11 cells (5 × 10^5/0.1 mL). The experimental animals were treated with either DMSO alone (0.1 mL/mouse) or 4-MMI (daily 200 μg/mouse, i.p.) starting from day 2 after the implantation of tumor cells, for 12 days. The tumor size was measured using calipers on day 8 and day 12. The tumor volume (V) was determined using the equation V = L × W^2 × 0.52, where L is the length and W is the width of the tumor. Lastly, the mice were euthanized and xenograft tumors were removed, weighed, and fixed using formalin for further studies.
# Figure 5 MPC-11 tumor growth. Cells (MPC-11 mouse myeloma) from exponential cultures were washed with PBS and brought to a concentration of 5 × 10^6 cells/mL. Cell suspension (5 × 10^5/0.1 mL) was inoculated subcutaneously at the right flank of 6-week-old female BALB/c mice (n = 6). Mice were treated with either DMSO (0.1 mL/mouse) or test compound (daily 200 µg/mouse, i.p.), starting on day 2 after the injection of tumor cells, for 12 days. Tumor size was determined on days 8 and 12 by externally measuring the tumors in two dimensions using a caliper (A, p < 0.001). […]
# tumor cell = system: tumor cell; parameters: method as in PMID 28359266; details: cited from earlier work
Compound,IC50 (heparanase [1]) [µM],inhibition of heparanase activity (ECM degradation) (heparanase [2]),inhibition at 25 µg/mL (heparanase [2]) [%],invasion capacity of U87 cells (U87 human glioma cells),other results
"Cc1ccc(-c2nnc3sc(-c4cc(I)ccc4O)nn23)cc1 [4-MMI, 4-iodo-2-(3-(p-tolyl)-[1,2,4]triazolo[3,4-b][1,3,4]thiadiazol-6-yl)phenol]",7.14,little or no inhibition,50 to 70,significantly inhibited,"inhibition of 4T1 experimental metastasis (extravasation and lung colonization, luciferase intensity) ([3]; 500 μg/mouse i.p. 20 min before i.v. cell inoculation): inhibited the extravasation of 4T1 cells and their subsequent colonization in the mouse lungs; also recorded: nearly fourfold inhibition; VEGF levels in tumor sections (VEGF): marked decrease in the levels of VEGF; also recorded: profound reduction in VEGF levels; tumor growth and tumor burden (tumor size days 8 and 12, tumor weight) ([4]; daily 200 μg/mouse i.p. from day 2 for 12 days, s.c. MPC-11 tumors): effectively and markedly decreased the rate of tumor growth and the tumor burden; also recorded: profound inhibition of tumor growth and burden; signs of distress and toxicity ([4]; daily administration of 200 ug/mouse/day): no signs of distress and toxicity"
"N-(4-([4-(1H-Benzoimidazol-2-yl)-arylamino]-methyl)-phenyl)-benzamide [Compound #98, reference compound]",,,,,"IC50, inhibition of heparanase enzymatic activity (heparanase [1]): 0.7 µg/mL"
Roneparstat [reference compound],,,,,inhibition of 4T1 experimental metastasis (luciferase intensity) ([3]; positive control 150 µg/mouse i.p. 20 min before i.v. cell inoculation): comparable

# Now from value to compound, other results behind:
IC50 (heparanase [1]) [µM],inhibition of heparanase activity (ECM degradation) (heparanase [2]),inhibition at 25 µg/mL (heparanase [2]) [%],Compound,invasion capacity of U87 cells (U87 human glioma cells),other results
6.6,little or no inhibition,50 to 70,"Oc1ccc(I)cc1-c1nn2c(-c3ccc(Cl)cc3)nnc2s1 [4-CMI, 2-(3-(4-chlorophenyl)-[1,2,4]triazolo[3,4-b][1,3,4]thiadiazol-6-yl)-4-iodophenol]",significantly inhibited,
22.3,little or no inhibition,50 to 70,"Cc1ccc(-c2nnc3sc(-c4cc(I)cc(I)c4O)nn23)cc1 [4-MDI, 2,4-diiodo-6-(3-(p-tolyl)-[1,2,4]triazolo[3,4-b][1,3,4]thiadiazol-6-yl)phenol]",,
54.9,,,"Oc1c(I)cc(I)cc1-c1nn2c(-c3ccccc3)nnc2s1 [DTP, 2,4-Diiodo-6-(3-phenyl-[1,2,4]triazolo[3,4-b][1,3,4]thiadiazol-6yl)phenol, reference compound]",,"IC50 values, inhibition of tumor cell proliferation, migration, and invasion in vitro (tumor cell): micromolar range"
